According to patent publication US10174013B2, “Benzimidazole derivatives as kinase inhibitors” (SELVITA S.A., priority 2012, dated 2019):
Structures can show the parent of a compound that is named as a salt. Where two headings read alike, the source gives them in different places.

Columns and labels:
Pim-1 = Pim-1 (Homo sapiens (Human), UniProt P11309); assay: ADP-Glo Kinase Assay, Pim-1; format: biochemical; settings: 1 μM compound; for inhibition at 1 µM: read-out: Pim-1 % INH (1 μM)
Protocol: (§1) Compounds of the present invention were tested for their inhibitory activity against Pim-1, Pim-2, Pim-3, Flt3 wt, Flt3 ITD, CDK2/E and DYRK1. The testing of the compounds was carried out using the ADP-Glo™ Kinase Assay from Promega Corporation (Madison, Wis., USA).
(§2) The ADP-Glo™ Kinase Assay is a luminescent ADP detection assay to measure kinase activity by quantifying the amount of ADP produced during a kinase reaction. The kinase assay is performed in kinase assay buffer (5 mM MOPS, pH 7.5, 5 mM MgCl2, 0.4 mM EDTA, 1.5 mM DTT). Test samples initially dissolved in DMSO at 10 mM were diluted with the assay buffer to 1000 nM. A 30 μL volume/well of a mixture of substrates containing ATP (final ATP concentration in each kinase assay was equal to its apparent ATP Km).
(§3) The assay was performed in two steps: first, after the kinase reaction, an equal volume of ADP-Glo™ Reagent was added to terminate the kinase reaction and deplete the remaining ATP. Second, the Kinase Detection Reagent was added to simultaneously convert ADP to ATP and allowed the newly synthesized ATP to be measured using a luciferase/luciferin reaction. The luminescent signal generated was proportional to the ADP concentration produced and was correlated with kinase activity. A microplate spectrophotometer (Synergy 2 multi-mode microplate reader [BioTek]) was used for detecting the luminescence. The data was normalized and the percent of inhibition was obtained according to the following equation: […]

DYRK1 = DYRK1 (Homo sapiens (Human), UniProt Q13627); assay: ADP-Glo Kinase Assay, DYRK1; format: biochemical; settings: 1 μM compound; for inhibition at 1 µM: read-out: DYRK1A % INH (1 μM)
Protocol: as §1, §2, §3

MV4-11 cells = assay: Growth inhibition, MTS assay, MV4-11; format: cell-based, Human; settings: MTS cell viability, read-out: MV4-11 ED50
From the text: (§4) The following cell lines, were obtained and used in tests as outlined below: • Human myelomonocytic, biphenotypic leukemia MV4-11 cells (harboring a Flt3-ITD mutation); • Human Acute Myeloid Leukemia MOLM16 cells; • Human Acute Myeloid Leukemia MOLM13 cells (harboring a Flt3-ITD mutation); • Human Myeloid Leukemia KG-1 cells; • Human erythroleukemia HEL92 cells; • Human mantle cell lymphoma Jeko-1 cells; • Human hepatocellular carcinoma HepG2 cells; and • Human colon adenocarcinoma SW-480 cells.
(§5) The assays were carried out according to the following protocol, which is described as an example for the MV4-11 cells:
(§6) Ten thousand MV4-11 cells were inoculated into each well of a 96-well microplate (manufactured by Corning Corp.) using Iscove's MDM medium (culture medium) containing 10% fetal calf serum (FCS). The same day, a dimethyl sulfoxide (DMSO) solution of each test compound prepared in a concentration of 10 mmol/L was further diluted with DMSO to the desired concentrations (0.1, 0.5, 1, 2.5, 5 and 10 micromol/L), and the diluted solution was added to each well. The individual wells were further cultured in 5% carbon dioxide at 37° C. for 72 hours. […] Briefly, 10 μl MTS (3-(4,5-Dimethyl-2-thiazolyl)-5-(carboxymethoxyphenyl)-2-(4-sulfophenyl)-2H-tetrazolium was added to each well, and culturing was performed in 5% carbon dioxide at 37° C. for 2 hours. After this incubation and using a microplate spectrophotometer (Synergy 2 multi-mode microplate reader (BioTek)), the absorbance of each well was measured at 490 nm. The value for cells not incubated with a test compound was designated as 100%. By comparing these values with the absorbance difference obtained at the well in which each test compound was added, the cell viability (% viability) after treatment with the test compound was calculated.

HepG2 cells = assay: Growth inhibition, MTS assay, HepG2; format: cell-based, Human; settings: MTS cell viability, read-out: HepG2 ED50
From the text: as §4, §5, §6

Pim-3 = Pim-3 (Homo sapiens (Human), UniProt Q86V86); assay: ADP-Glo Kinase Assay, Pim-3; format: biochemical; settings: 1 μM compound; for inhibition at 1 µM: read-out: Pim-3 % INH (1 μM)
Protocol: as §1, §2, §3

FLT3wt = FLT3wt (Homo sapiens (Human), UniProt P36888); assay: ADP-Glo Kinase Assay, Flt3 wt; format: biochemical; settings: 1 μM compound; for inhibition at 1 µM: read-out: Flt3wt % INH (1 μM)
Protocol: as §1, §2, §3

HEL92 cells = assay: Growth inhibition, MTS assay, HEL92; format: cell-based, Human; settings: MTS cell viability, read-out: HEL92 ED50
From the text: as §4, §5, §6

Pim-2 = Pim-2 (Homo sapiens (Human), UniProt Q9P1W9); assay: ADP-Glo Kinase Assay, Pim-2; format: biochemical; settings: 1 μM compound; for inhibition at 1 µM: read-out: Pim-2 % INH (1 μM)
Protocol: as §1, §2, §3

CDK2/E = CDK2/E (Homo sapiens (Human), UniProt P24941); assay: ADP-Glo Kinase Assay, CDK2/E; format: biochemical; settings: 1 μM compound; for inhibition at 1 µM: read-out: CDK2/E % INH (1 μM)
Protocol: as §1, §2, §3

Pim-2, sequence (Q9P1W9 whole entry): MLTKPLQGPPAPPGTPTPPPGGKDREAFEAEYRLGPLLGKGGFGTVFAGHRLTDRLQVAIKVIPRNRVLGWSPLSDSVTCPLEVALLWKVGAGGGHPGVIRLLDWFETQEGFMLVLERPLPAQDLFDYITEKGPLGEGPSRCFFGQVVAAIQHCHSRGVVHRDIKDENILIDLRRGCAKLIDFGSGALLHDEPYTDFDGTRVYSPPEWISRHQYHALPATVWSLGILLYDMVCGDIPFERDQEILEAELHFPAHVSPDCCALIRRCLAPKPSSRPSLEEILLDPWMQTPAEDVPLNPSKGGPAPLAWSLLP
FLT3wt, sequence (P36888 27-993): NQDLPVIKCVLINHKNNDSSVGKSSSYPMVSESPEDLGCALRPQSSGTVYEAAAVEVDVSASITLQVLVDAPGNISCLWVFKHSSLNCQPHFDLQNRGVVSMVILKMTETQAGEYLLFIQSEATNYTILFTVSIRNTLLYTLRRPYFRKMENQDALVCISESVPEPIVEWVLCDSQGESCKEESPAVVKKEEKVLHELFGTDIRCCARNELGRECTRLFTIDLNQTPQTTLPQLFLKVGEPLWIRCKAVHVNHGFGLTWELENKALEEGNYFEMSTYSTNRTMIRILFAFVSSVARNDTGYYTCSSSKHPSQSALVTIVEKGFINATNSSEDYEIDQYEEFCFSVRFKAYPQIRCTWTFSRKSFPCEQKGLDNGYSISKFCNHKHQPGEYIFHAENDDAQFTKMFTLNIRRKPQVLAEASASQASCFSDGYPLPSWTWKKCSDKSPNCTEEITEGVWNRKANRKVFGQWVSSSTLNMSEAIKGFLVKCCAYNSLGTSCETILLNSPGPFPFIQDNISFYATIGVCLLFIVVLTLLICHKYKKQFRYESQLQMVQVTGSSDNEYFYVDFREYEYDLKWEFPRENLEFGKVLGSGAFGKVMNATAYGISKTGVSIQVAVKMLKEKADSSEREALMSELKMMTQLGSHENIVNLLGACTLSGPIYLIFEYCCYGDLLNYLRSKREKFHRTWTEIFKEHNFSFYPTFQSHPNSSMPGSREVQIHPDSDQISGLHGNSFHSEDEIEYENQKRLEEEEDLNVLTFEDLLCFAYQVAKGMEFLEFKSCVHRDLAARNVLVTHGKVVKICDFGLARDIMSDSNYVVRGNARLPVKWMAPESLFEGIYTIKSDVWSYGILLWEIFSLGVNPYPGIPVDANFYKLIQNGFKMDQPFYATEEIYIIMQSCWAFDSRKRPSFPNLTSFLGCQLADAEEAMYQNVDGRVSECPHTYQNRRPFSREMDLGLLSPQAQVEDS
Pim-1, sequence (P11309 whole entry): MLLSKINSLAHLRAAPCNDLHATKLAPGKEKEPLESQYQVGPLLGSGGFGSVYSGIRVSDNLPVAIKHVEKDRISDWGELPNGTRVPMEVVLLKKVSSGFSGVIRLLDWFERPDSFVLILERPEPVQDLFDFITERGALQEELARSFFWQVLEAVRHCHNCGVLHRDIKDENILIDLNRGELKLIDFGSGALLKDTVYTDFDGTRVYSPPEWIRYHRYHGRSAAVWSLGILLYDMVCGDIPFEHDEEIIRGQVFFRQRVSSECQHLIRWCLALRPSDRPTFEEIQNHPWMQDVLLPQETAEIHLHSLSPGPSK

| SMILES | Pim-1 % INH (1 μM) (Pim-1) [%] | DYRK1A % INH (1 μM) (DYRK1) [%] | IC50 (MV4-11 cells; 72 hours) [nM] | IC50 (HepG2 cells; 72 hours) [nM] | Pim-3 % INH (1 μM) (Pim-3) [%] | Flt3wt % INH (1 μM) (FLT3wt) [%] | IC50 (HEL92 cells; 72 hours) [nM] | Pim-2 % INH (1 μM) (Pim-2) [%] | CDK2/E % INH (1 μM) (CDK2/E) [%] | inhibition at 1 µM (Pim-2) [%] | inhibition at 1 µM (Pim-1) [%] | IC50 (HepG2 cells; Homo sapiens, HepG2, 72 h) [nM] | inhibition at 1 µM (Pim-3) [%] | inhibition at 1 µM (FLT3wt) [%] | inhibition at 1 µM (DYRK1) [%] | IC50 (MV4-11 cells; Homo sapiens, MV4-11, 72 h) [nM] | inhibition at 1 µM (CDK2/E) [%] | IC50 (HEL92 cells; Homo sapiens, 72 h) [nM] |
| --- | --- | --- | --- | --- | --- | --- | --- | --- | --- | --- | --- | --- | --- | --- | --- | --- | --- | --- |
| CC(C)n1c(N2CCNC[C@H]2C)nc2c([N+](=O)[O-])c(Br)c(Br)cc21 [Example 1AO] | 95 | 15 | 600 | 1700 | 59 | 26 | 3800 | – | – | – | – | – | – | – | – | – | – | – |
| CC(C)Cn1c(N2CCC[C@@H](N)C2)nc2c([N+](=O)[O-])c(Br)c(Br)cc21.Cl [Example 1AU] | >95 | – | 2400 | 1900 | 68 | 7 | 5800 | 52 | <5 | – | – | – | – | – | – | – | – | – |
| Cl.NC1CCCN(c2nc3c([N+](=O)[O-])c(Br)c(Br)cc3n2CC2CC2)C1 (stereo not shown) [Example 1AV] | >95 | 46 | 1400 | 4500 | 91 | 37 | – | 54 | 12 | – | – | – | – | – | – | – | – | – |
| N[C@@H]1CCN(c2nc3c([N+](=O)[O-])c(Br)c(Br)cc3n2CC2CC2)C1 [Example 1BG] | >95 | >95 | 1600 | 4000 | >95 | 23 | – | 82 | <5 | – | – | – | – | – | – | – | – | – |
| CC(C)n1c(N2CCC[C@H](N)C2)nc2c(C#N)c(Br)c(Br)cc21 [Example 1BJ] | – | 54 | 600 | – | – | – | – | – | <5 | 82 | > 95 | 4800 | > 95 | 31 | – | – | – | – |
| CC(C)n1c(NCC2CNCCO2)nc2c(C#N)c(Br)c(Br)cc21 (stereo not shown) [Example 1BN] | – | – | – | – | – | – | – | – | – | 29 | > 95 | 5100 | 77 | < 5 | 21 | 1900 | < 5 | – |
| CC(C)n1c(N[C@H]2CNC[C@@H]2O)nc2c([N+](=O)[O-])c(Br)c(Br)cc21.Cl [Example 1CE] | >95 | 37 | 2800 | 3200 | 76 | 12 | – | 53 | <5 | – | – | – | – | – | – | – | – | – |
| CCn1c(N2CC[C@@H](N)C2)nc2c([N+](=O)[O-])c(Cl)c(Cl)cc21 [Example 1CO] | >95 | 30 | 4300 | 3900 | 69 | 12 | – | 25 | 27 | – | – | – | – | – | – | – | – | – |
| COCCn1c(N2CC[C@@H](N)C2)nc2c([N+](=O)[O-])c(Br)c(Br)cc21 [Example 1CS] | >95 | 37 | 4800 | 4700 | 56 | 10 | – | 23 | 9 | – | – | – | – | – | – | – | – | – |
| CCn1c(N2CCC[C@H](N)C2)nc2c([N+](=O)[O-])c(Cl)c(Cl)cc21 [Example 1CT] | >95 | 22 | 2700 | 6000 | 64 | 7 | – | 28 | 6 | – | – | – | – | – | – | – | – | – |
| CCn1c(NCC(O)CN)nc2c([N+](=O)[O-])c(Br)c(Br)cc21 (stereo not shown) [Example 1G] | – | – | – | – | – | – | – | – | – | 34 | 76 | – | 57 | 6 | 12 | – | < 5 | – |
| CC(C)n1c(NCC(O)CN)nc2c([N+](=O)[O-])c(Br)c(Br)cc21 (stereo not shown) [Example 1W] | – | – | – | – | – | – | – | – | – | – | 89 | – | 92 | < 5 | 40 | – | < 5 | – |
| CCn1c(N2CCNCC2)nc2c(C(F)(F)F)c(Br)c(Br)cc21 [Example 9A, 5,6-dibromo-1-ethyl-2-(piperazin-1-yl)-4-(trifluoromethyl)-1H-1,3-benzodiazolehydrochloride] | – | – | – | – | – | – | – | – | – | 15 | > 95 | 1500 | 66 | 76 | 77 | 300 | < 5 | – |
| COC(CN)CNc1nc2c(C#N)c(Br)c(Br)cc2n1C(C)C (stereo not shown) [Example 22AC, 2-[(3-amino-2-methoxypropyl)amino]-5,6-dibromo-1-(propan-2-yl)-1H-1,3-benzodiazole-4-carbonitrile] | – | – | – | – | – | – | – | – | – | 30 | > 95 | 7200 | 61 | 7 | 16 | 4100 | < 5 | – |
| CC(C)n1c(N2CCCC(CO)C2)nc2c([N+](=O)[O-])c(Br)c(Br)cc21 (stereo not shown) [Example 22H, {1-[5,6-dibromo-4-nitro-1-(propan-2-yl)-1H-1,3-benzodiazol-2-yl]piperidin-3-yl}methanol] | – | – | – | – | – | – | – | – | – | – | > 95 | – | 71 | < 5 | – | – | 16 | – |
| CC(C)n1c(N2CCOCC2)nc2c([N+](=O)[O-])c(Br)c(Br)cc21 [Example 22K, 5,6-dibromo-2-(morpholin-4-yl)-4-nitro-1-(propan-2-yl)-1H-1,3-benzodiazole] | – | – | – | – | – | – | – | – | – | 40 | > 95 | – | 85 | 23 | 28 | 4100 | < 5 | – |
| CCn1c(Nc2ccccc2N)nc2c([N+](=O)[O-])c(Br)c(Br)cc21 [Example 22N, 1-N-(5,6-dibromo-1-ethyl-4-nitro-1H-1,3-benzodiazol-2-yl)benzene-1,2-diamine] | – | – | – | – | – | – | – | – | – | 23 | 82 | 4200 | 44 | < 5 | 21 | 2600 | < 5 | – |
| CC(C)n1c(N2CCN[C@@H](C)C2)nc2c([N+](=O)[O-])c(Br)c(Br)cc21 [Example 22Z, 5,6-dibromo-2-[(3S)-3-methylpiperazin-1-yl]-4-nitro-1-(propan-2-yl)-1H-1,3-benzodiazole] | – | – | – | – | – | – | – | – | – | 37 | > 95 | 1600 | 85 | 73 | 63 | 700 | – | 2400 |
